Measurements published in publication PMC8225008, “Development of Non-Ethoxypropanoic Acid Type Cryptochrome Inhibitors with Circadian Molecular Clock-Enhancing Activity by Bioisosteric Replacement” (Pharmaceuticals, 2021).

Tests used:
E-box-LUC reporter = experiment: E-box-LUC luciferase reporter assay, dose-response in stably transfected NIH3T3 cells; format: cell-based; conditions: Mus musculus, E-box-LUC reporter activity, NIH3T3, 36 h; for Emax: maximum response as a percentage of the vehicle-treated group, read-out: Max (%)
Method: (§1) Materials for cell culture were purchased from Thermo Fisher Scientific, unless otherwise stated. NIH3T3 and HEK293T cells were maintained in Dulbecco’s modified Eagle medium supplemented with 5% fetal bovine serum and 100 U/mL penicillin/streptomycin in a humidified atmosphere containing 5% CO2 at 37 °C. Plasmids and transfection experiments for luciferase reporter assay were described in our previous report. For dose-response experiments, mouse NIH3T3 cells stably transfected with an E-box-LUC reporter were plated in 12-well culture plates, treated as indicated for 36 h, and subjected to luciferase assay. For transient transfections, we seeded HEK293T cells in 12-well culture plates and used Lipofectamine® 3000 reagent to transfect cells with the E-box-LUC reporter and the indicated clock gene expression plasmids together with a thymidine kinase promoter-driven Renilla luciferase (pRL-TK) plasmids. We kept total DNA levels constant by adding an empty pcDNA3.1 plasmid. After 24 h of transfection, cells were treated with vehicle (0.1% DMSO) or chemical compounds at various concentrations for 36 h. Cell extracts were prepared by incubating cells in 0.3 mL reporter lysis buffer for 15 min at room temperature. Luciferase activity was measured with a commercial dual luciferase assay kit (Promega, Madison, WI, USA).
(§2) The EC50 values for luciferase reporter assay were calculated based on a logistic four-parametric equation using the mean values of intrinsic activation (SigmaPlot 10.0; Systat Software Inc., San Jose, CA, USA). The IC50 and t1/2 values for the cytochrome P450 inhibition assay and metabolic stability test were calculated by WinNonlin software (Pharsight, Mountain View, CA, USA). Pharmacokinetic parameters were calculated using non-compartmental analysis (WinNonlin v.8.3; Pharsight, Mountain View, CA, USA). Kinetic and equilibrium constants for SPR analysis were obtained by global fitting of the Langmuir 1:1 bimolecular kinetic model (ProteOn Manager v.3.1.0.6, Bio-Rad, Hercules, CA, USA). Circadian molecular clock-enhancing activities were expressed as means ± SE and statistically evaluated by Student’s t-test or one-way analysis of variance (ANOVA) followed by Newman–Keuls multiple comparison test for post hoc comparisons. The significance level for the analyses was set at p < 0.05.

[1] = Metabolic stability test in pooled human liver microsomes; format: in vitro ADME; conditions: pooled HLMs 1.0 mg/mL, 1 μM compound, NADPH generating system, read-out: t1/2 in HLMs
Method: The metabolic stability of KS15, 5d, or 2d was evaluated using pooled HLMs. Pooled HLMs (1.0 mg/mL), a potassium phosphate buffer, and a test compound (1 μM) were pre-incubated (37 °C, 5 min). To initiate the reaction, the NADPH generating system was added to the samples and incubated for specific time points (0, 5, 15, 20, 45, and 60 min). Then, aliquots were taken and reactions terminated in acetonitrile containing IS. After centrifugation, supernatants were analyzed using LC-MS/MS to determine KS15, 5d, or 2d concentrations in samples. Analyte separation was performed using a Kinetex C18 column (100 mm × 2.1 mm, 2.6 μm ID., Phenomenex). The mobile phase solvent A was 0.1% formic acid in water, and solvent B was 0.1% formic acid in acetonitrile. Gradient separation was performed as follows: 0–3 min (10–90% B) and 3.1–8 min (10% B). The flow rate was 0.2 mL/min, and the run time was 8 min for each sample. Electrospray ionization was conducted in positive ion mode at 4 kV. […] Quantitation was performed in the SRM of the [M+H]^+ ion and the related product ion for each test compound and IS: KS-15 (m/z 420 > 169, CE 30 eV), 5d (m/z 359 > 206, CE 20 eV), 2d (m/z 345 > 192, CE 22 eV), and IS (m/z 295 > 100, CE 17 eV).
as §2, with “Kinetic and equilibrium constants for SPR analysis were obtained by global fitting of the Langmuir 1:1 bimolecular kinetic model (ProteOn Manager v.3.1.0.6, Bio-Rad, Hercules, CA, USA).” left out, “The significance level for the analyses was set at p < 0.05.” left out

[2] = system: Per2-luciferase knock-in (Per2-Luc-KI) fibroblast cultures; experiment: Real-time bioluminescence monitoring of DEX-synchronized Per2-Luc-KI fibroblast cultures; format: cell-based, mouse; conditions: 20 μM, DEX-synchronized Per2-Luc-KI fibroblasts
Method: For real-time bioluminescence monitoring, we used mouse embryonic fibroblast (MEF) cultures established from Per2-LUC-KI mice. […] The medium was then replaced with a recording medium containing 0.1 mM D-luciferin (Promega) along with vehicle (0.1% DMSO), KS15 (20 μM), 5d (20 μM), or 2d (20 μM). Light emission for 2 min at intervals of 20 min was integrated using a dish-type wheeled luminometer (Kronos-Dio, ATTO Cooperation, Tokyo, Japan). Background-subtracted bioluminescence profiles were analyzed using Cosinor analysis software (available at http://www.circadian.org, last accessed on 19 May 2021).
as §2

hCRY1 = target: T1, hCRY1 (Homo sapiens, UniProt Q16526); experiment: Suppressive action of CRY1 on CLOCK:BMAL1-activated E-box-LUC reporter activity in transiently transfected HEK293T cells; format: cell-based; set-up: expressed in transfected cells; host or cells: HEK293T; conditions: co-expression of human CRY1, 36 h treatment
T1 sequence (Q16526 1-586): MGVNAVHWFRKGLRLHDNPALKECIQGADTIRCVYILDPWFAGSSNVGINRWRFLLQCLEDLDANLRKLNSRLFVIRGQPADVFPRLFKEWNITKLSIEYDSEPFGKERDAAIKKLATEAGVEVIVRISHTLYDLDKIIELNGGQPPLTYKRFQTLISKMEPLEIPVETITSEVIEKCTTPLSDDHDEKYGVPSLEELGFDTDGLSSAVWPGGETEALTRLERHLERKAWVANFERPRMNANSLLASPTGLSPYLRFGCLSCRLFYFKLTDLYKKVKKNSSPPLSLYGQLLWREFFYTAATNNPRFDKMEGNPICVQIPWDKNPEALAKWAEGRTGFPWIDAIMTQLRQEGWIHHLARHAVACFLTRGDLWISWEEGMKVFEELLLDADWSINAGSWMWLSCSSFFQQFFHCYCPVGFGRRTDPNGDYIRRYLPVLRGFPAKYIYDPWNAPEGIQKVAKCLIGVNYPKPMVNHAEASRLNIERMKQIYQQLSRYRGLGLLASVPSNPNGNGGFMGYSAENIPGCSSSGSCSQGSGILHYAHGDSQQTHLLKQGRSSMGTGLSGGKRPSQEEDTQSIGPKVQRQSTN
Method: as §1

Row | EC50 (E-box-LUC reporter) [µM] | half-life at 1 μM [1] [min] | Amplitude of cyclic Per2 expression [2] | Robustness of the rhythm (Cosinor regression) [2] | SMILES | Emax (E-box-LUC reporter) [%] | Effect on CRY1-suppressed CLOCK:BMAL1-activated E-box-mediated transcription (hCRY1)
1 | 10.2 | > 60 | significantly augmented the amplitude | barely affect the robustness | CC(=NOCc1ccc([N+](=O)[O-])cc1)c1cccc(OCC(=O)O)c1 [Compound 2d, 2-(3-(1-(((4-nitrobenzyl)oxy)imino)ethyl)phenoxy)acetic acid] | 161 | dose-dependently restored E-box-mediated transcriptional activities
2 | 6.44 | 2.4 | significantly augmented the amplitude | barely affect the robustness | COC(=O)COc1cccc(C(C)=NOCc2ccc([N+](=O)[O-])cc2)c1 [Compound 5d, Methyl 2-(3-(1-(((4-nitrobenzyl)oxy)imino)ethyl)phenoxy)acetate] | 193 | dose-dependently restored E-box-mediated transcriptional activities
